Measured values from US9464071B2 (priority 2010, dated 2016).
Where “and” joins values, the source holds several entries; their conditions need not be identical. Equal values may be shown once. Where a name gives a salt, the structure may show the parent alone.

melting point	SMILES
204 °C	COc1cc(OC)cc(N(CC#Cc2cc(C(N)=O)ccn2)c2ccc3ncc(-c4cnn(C)c4)nc3c2)c1
130.64 °C	COc1cc(OC)cc(N(CCNS(C)(=O)=O)c2ccc3ncc(-c4cnn(C)c4)nc3c2)c1 [Compound 262]
88 °C	CCOC(=O)Cn1cc(CN(c2cc(OC)cc(OC)c2)c2ccc3ncc(-c4cnn(C)c4)nc3c2)nn1
134 °C	CNC(=O)Cn1cc(-c2cnc3ccc(N(CCCNC(C)C)c4cc(OC)cc(OC)c4)cc3n2)cn1 [Compound 615]
168 °C	C#CCN(c1cc(OC)cc(OC)c1)c1ccc2ncc(-c3cnn(C)c3)nc2c1 [Compound 38]
168 °C	COc1cc(OC)cc(N(CC(F)CN)c2ccc3ncc(-c4cnn(C)c4)nc3c2)c1 (centres unmarked)
184.72 °C	COc1cc(OC)cc(N(CCN2CCN(C(C)=O)CC2)c2ccc3ncc(-c4cnn(C)c4)nc3c2)c1 [Compound 143, N-[2-(4-Acetylpiperazin-1-yl)ethyl]-N-(3,5-dimethoxyphenyl)-3-(1-methyl-1H-pyrazol-4-yl)quinoxalin-6-amine]
194 °C	CCn1cc(-c2cnc3ccc(N(CCNC(C)C)c4cc(OC)cc(OC)c4)cc3n2)cn1 (as salt: HCl) [Compound 135, N-(3,5-Dimethoxyphenyl)-N-[3-(1-ethyl-1H-pyrazol-4-yl)quinoxalin-6-yl]-N′-(1-methylethyl)ethane-1,2-diamine]
189 °C and 189.27 °C	COc1cc(OC)cc(N(CCCNS(C)(=O)=O)c2ccc3ncc(-c4cnn(C)c4)nc3c2)c1 [Compound 48]
143 °C	COc1cc(OC)cc(N(CCF)c2ccc3ncc(-c4cnn(C)c4)nc3c2)c1
176 °C and 176.49 °C	CNC(=O)Cn1cc(-c2cnc3ccc(N(CCCO)c4cc(OC)cc(OC)c4)cc3n2)cn1 [Compound 313]
157 °C	COc1cc(OC)cc(N(CC2CNC(=O)O2)c2ccc3ncc(-c4cnn(C)c4)nc3c2)c1 (centres unmarked)
167 °C	COc1cc(OC)cc(N(CC#CC2(O)CCNCC2)c2ccc3ncc(-c4cnn(C)c4)nc3c2)c1

Continued, compound first:

SMILES	melting point
COc1cc(OC)cc(N(CCNC(C)C)c2ccc3ncc(-c4cnn(CCCN5CCN(CCO)CC5)c4)nc3c2)c1 (as salt: HCl) [Compound 644]	96 °C
COc1cc(OC)cc(N(CC2CC2)c2ccc3ncc(-c4cnn(C5CCN(S(C)(=O)=O)CC5)c4)nc3c2)c1	200 °C
COc1ccc(OC)c(N(CCO)c2ccc3ncc(-c4cnn(C)c4)nc3c2)c1	191.73 °C
COc1ccc(N(CC2CC2)c2ccc3ncc(-c4cnn(C)c4)nc3c2)cc1OC	190 °C
COc1cc(OC)cc(N(CC2CC2)c2ccc3ncc(-c4cnn(CCCNCCS(C)(=O)=O)c4)nc3c2)c1 [Compound 231]	106.81 °C
COCC(O)CN(c1cc(OC)cc(OC)c1)c1ccc2ncc(-c3cnn(C(C)C)c3)nc2c1 (single isomer, unassigned) (as salt: HCl)	95 °C
COc1ccc(OC)c(N(CCN)c2ccc3ncc(-c4cn[nH]c4)nc3c2)c1 [Compound 438]	140.67 °C
COc1cc(OC)cc(N(CC2CCN(CC(F)(F)F)CC2)c2ccc3ncc(-c4cnn(C)c4)nc3c2)c1	123 °C and 123.5 °C
COc1cc(OC)cc(N(CC2CC2)c2ccc3ncc(-c4cnn(CCNS(C)(=O)=O)c4)nc3c2)c1 [Compound 271]	181.91 °C
COc1cc(OC)cc(N(CCNC(C)C)c2ccc3ncc(-c4c(C)nn(C)c4C)nc3c2)c1 (as salt: HCl) [Compound 623]	133 °C
COc1cc(OC)cc(N(Cc2ccc(Cl)s2)c2ccc3ncc(-c4cnn(Cc5ccc(Cl)s5)c4)nc3c2)c1	131.39 °C
COCCNC(=O)C(C)(C)n1cc(-c2cnc3ccc(N(CC4CC4)c4cc(OC)cc(OC)c4)cc3n2)cn1	104.64 °C
COc1cc(OC)cc(N(CC2CC2)c2ccc3ncc(-c4cnn(CCN5CCN(CCO)CC5)c4)nc3c2)c1	146.13 °C
